Each structure is given as a SMILES string.

The target in one experiment is T1, NPM-ALK (Homo sapiens, UniProt Q9UM73).
T1 construct: the other entry of the earlier key: NPM1 (P06748, Nucleophosmin)
The following applies: reported in Laboratory investigation 2005, Vol. 85, p. 1544-1554; cited from earlier work.

In experiment [1] the target is T2, EML4-ALK fusion polypeptide v3 (Homo sapiens, UniProt Q9UM73, D1529E/I1461V/K1491R). The experiment can be described thus: In vitro phosphorylation of peptide substrate by purified EML4-ALK fusion polypeptide v3 (HTRF KinEASE-TK). The arrangement: expresses both EML4-ALK fusion polypeptide v3 having the FLAG tag at the N-terminus and CD8; made in house; host or cells: mouse BA/F3 cells infected with FLAG-EML4-ALKv3/pMX-iresCD8 retrovirus. In kind it is biochemical. To be noted: TK substrate 1. Here is the method:
(§1) A recombinant retrovirus was produced according to a method of previous report (BBRC 356, 723-726, 2007) using FLAG-EML4-ALKv3/pMX-iresCD8. Mouse lymphatic cell line BA/F3 cells were infected therewith. The EML4-ALK fusion polypeptide v3 expressing BA/F3 cells were cultured in RPM1640 medium containing 10% of fetal bovine serum. To prepare the EML4-ALK fusion polypeptide v3, about 2×10^9 cells were collected. After washing 3 times with PBS, cells were lysed in a lysis solution (50 mM Tris.HCl (pH7.4), 150 mM NaCl, 1% Triton X100, 5 mM EDTA, 5 mM EGTA, 1 mM NaVO4, 1 mM DTT and protease inhibitor cocktail complete). The EML4-ALK fusion polypeptide v3 present in the supernatant obtained after a centrifugation was purified using ANTI-FLAG M2 Affinity Gel (SIGMA-ALDRICH Inc) according to the method described in the product information document. For washing and elution, the washing solution (50 mM Tris.HCl (pH7.4), 250 mM NaCl, 0.05% Brij35, 1 mM EDTA, 1 mM EGTA, 1 mM NaVO4, 1 mM DTT, complete) and the elution solution (50 mM Tris.HCl (pH7.4), 150 mM NaCl, 0.05% Brij35, 1 mM DTT, 0.5 mg/mL FLAG peptide) were used, respectively. Immunoblotting using anti-ALK antibody and anti FLAG M2 antibody (SIGMA-ALDRICH Inc.) and silver staining were carried out for the eluate to detect the EML4-ALK fusion polypeptide v3.
(§2) The EML4-ALK fusion polypeptide v3 purified as described above was diluted in a reaction solution (15 mM Tris HCl (pH7.4), 0.25 mM MgCl2, 0.01% Tween-20, 2 mM DTT), and then ATP was not added or ATP 20 μM was added. The respective mixtures were reacted at room temperature for 1 hour. After the reaction, the auto phosphorylated EML4-ALK fusion polypeptide v3 and the EML4-ALK fusion polypeptide v3 were detected by immunoblotting using anti-phosphorylated ALK antibody, which recognizes specifically the product phosphorylated at the 1604th tyrosine residue of ALK, and anti-ALK antibody, and quantitated by an image analysis system (VersaDoc Imaging System; Bio-Rad Inc.). […]

In a further experiment the test system is NCI-H2228 cells. The experiment can be described thus: Anchorage independent growth of NCI-H2228 cells (spheroid plate). Type of experiment: cell-based, human. Here is the method:
(§3) The v3 expressing 3T3 cells (Example 2) were seeded to a 96 well spheroid plate (Sumilon Celltight Spheroid 96U, Sumitomo Bakelite Inc.) at 3000 cells per well in a medium (Invitrogen) containing 10% fetal bovine serum. […] At the same time, cells were counted before the addition of drugs (Day 0). Then, cells were cultured under 5% CO2, at 37° C. for 3 days, mixed with a reagent for measuring cell number (CellTiter-Glo™ Luminescent Cell Viability Assay; Promega Inc.) stirred for 20 minutes, and the measurements (day 3) were carried out using a luminometer (ML3000 microtiter plate luminometer; Dynatech Laboratories Inc.).
DMSO (control) or compound A-D was added to the NCI-H2228 cells at 10 μM or 30 nM and this investigation was performed by a similar manner described as in Example 5, except cells were cultured for 5 days after the addition of drugs.

For another experiment, the system named is v3 expressing 3T3 cells. Nature of the experiment: Anchorage independent growth of v3 expressing 3T3 cells (spheroid plate, CellTiter-Glo). In kind it is cell-based. The protocol: Measurement for anchorage independent cell growth (colony method, etc) has been known to be a system for investigating an antitumor effect (pharmacologic effect) of compounds (Clinical Oncology, second edition, Cancer and Chemotherapy Publishers Inc.). In place of the colony method, there is a following method using spheroid plates for measuring the growth of non-attached cells.
as §3
(In general: ATP-based viability assays read luminescence as a measure of living cells.)

The target of experiment [2] is T2, EML4-ALK fusion polypeptide v3. The experiment can be described thus: Intracellular autophosphorylation of EML4-ALK fusion polypeptide v3 in v3 expressing 3T3 cells. Type of experiment: cell-based. The following applies: 4 hours. The text has this: The EML4-ALK fusion polypeptide v3 expression vector (designated as EML4-ALKv3/pMXS) was constructed by subcloning the insert of the EML4-ALKv3/pT7Blue-2 in pMXS plasmid (JBC 275, 24945-24952, 2000). Also, using the EML4-ALKv3/pT7Blue-2, an expression vector (designated as FLAG-EML4-ALKv3/pMX-iresCD8) which expresses both EML4-ALK fusion polypeptide v3 having the FLAG tag at the N-terminus and CD8 was constructed by subcloning the insert in pMX-iresCD8 plasmid (JBC 276, 39012-39020, 2001). The 3T3 cells transfected with the EML4-ALKv3/pMXS described above were inoculated subcutaneously to nude mice at 5×10^6 cells/mouse and observed after 20 days. […] Hereinafter, the 3T3 cells in which EML4-ALK fusion polypeptide v3 is expressed are designated as the v3 expressing 3T3 cells.

Experiment [3] shares this target. The experiment can be described thus: In vitro autophosphorylation of purified EML4-ALK fusion polypeptide v3 (immunoblot, anti-phosphorylated ALK antibody). Type of experiment: biochemical. On the set-up: expresses both EML4-ALK fusion polypeptide v3 having the FLAG tag at the N-terminus and CD8; made in house; host or cells: mouse BA/F3 cells infected with FLAG-EML4-ALKv3/pMX-iresCD8 retrovirus. Here is the method:
as §1, §2
For orientation: A western blot detects proteins with antibodies after separation by electrophoresis.

A further experiment relates to NCI-H2228. Nature of the experiment: Anti-tumor test against NCI-H2228 subcutaneous tumor in NOD/SCID mice. Type of experiment: in vivo. To be noted: 10 mg/kg orally once a day for 14 days, solvent group start day = 100% inhibition, finish day = 0%. The protocol: 3×10^6 cells of NCI-H2228 suspended in 50% BD Matrigel™ (BD Biosciences) in PBS were inoculated subcutaneously by injection to the back of 5 weeks old male NOD/SCID mice (Japan Charles River Inc.). […] Administrations were performed once a day for 14 days, and body weight and tumor size were measured every three or four day. Tumor volume was calculated using the following formula. [Tumor volume (mm^3)]=[Tumor major axis (mm)]×[tumor minor axis (mm)]^2×0.5

The mark [4] stands for this setting: Homo sapiens, NCI-H2228, read-out: Inhibitory activity on NCI-H2228 cells.
Setting [5] is: Mus musculus, NIH3T3, read-out: Inhibitory activity on v3 expressing 3T3 cells.

T2 sequence (Q9UM73 with tags, fused parts or gaps I1461V/K1491R/D1529E): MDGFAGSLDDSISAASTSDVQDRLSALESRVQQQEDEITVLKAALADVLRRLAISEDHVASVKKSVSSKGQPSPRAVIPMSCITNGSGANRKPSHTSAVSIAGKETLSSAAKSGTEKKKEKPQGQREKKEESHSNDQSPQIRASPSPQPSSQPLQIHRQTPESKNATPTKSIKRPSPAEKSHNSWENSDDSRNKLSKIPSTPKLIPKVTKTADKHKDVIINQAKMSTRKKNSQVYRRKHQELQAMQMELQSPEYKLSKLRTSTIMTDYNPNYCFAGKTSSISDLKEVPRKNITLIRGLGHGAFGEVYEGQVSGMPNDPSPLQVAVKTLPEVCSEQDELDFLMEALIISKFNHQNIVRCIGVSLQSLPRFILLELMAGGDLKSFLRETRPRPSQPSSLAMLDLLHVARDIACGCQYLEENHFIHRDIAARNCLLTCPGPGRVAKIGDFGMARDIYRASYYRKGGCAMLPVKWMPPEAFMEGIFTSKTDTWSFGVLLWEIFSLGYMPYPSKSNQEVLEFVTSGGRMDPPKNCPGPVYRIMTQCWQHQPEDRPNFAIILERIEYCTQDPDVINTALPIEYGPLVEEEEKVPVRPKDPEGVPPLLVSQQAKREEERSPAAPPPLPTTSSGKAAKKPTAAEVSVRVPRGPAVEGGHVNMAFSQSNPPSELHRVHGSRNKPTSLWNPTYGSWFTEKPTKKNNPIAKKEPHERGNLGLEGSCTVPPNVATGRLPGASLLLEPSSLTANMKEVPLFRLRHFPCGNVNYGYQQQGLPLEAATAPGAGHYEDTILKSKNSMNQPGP
T1 sequence (Q9UM73 with tags, fused parts or gaps): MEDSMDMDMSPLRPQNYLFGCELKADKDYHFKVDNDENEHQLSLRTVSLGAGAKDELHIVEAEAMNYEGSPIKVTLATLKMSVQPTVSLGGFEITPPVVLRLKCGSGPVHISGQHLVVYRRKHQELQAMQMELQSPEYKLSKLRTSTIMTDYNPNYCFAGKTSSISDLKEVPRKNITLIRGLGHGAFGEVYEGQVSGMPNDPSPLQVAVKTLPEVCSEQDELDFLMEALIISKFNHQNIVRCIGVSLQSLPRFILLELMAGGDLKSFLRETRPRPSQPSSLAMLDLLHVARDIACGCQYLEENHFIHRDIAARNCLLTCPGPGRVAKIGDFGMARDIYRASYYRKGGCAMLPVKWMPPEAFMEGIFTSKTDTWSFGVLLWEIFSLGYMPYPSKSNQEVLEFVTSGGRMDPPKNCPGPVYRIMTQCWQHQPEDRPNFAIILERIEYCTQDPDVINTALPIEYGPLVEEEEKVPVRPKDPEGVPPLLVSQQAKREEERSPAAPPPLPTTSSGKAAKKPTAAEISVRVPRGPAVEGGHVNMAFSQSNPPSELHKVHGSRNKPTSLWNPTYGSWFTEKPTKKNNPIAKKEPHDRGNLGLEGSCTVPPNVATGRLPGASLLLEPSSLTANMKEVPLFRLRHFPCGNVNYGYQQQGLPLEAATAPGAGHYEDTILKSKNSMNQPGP

For `COc1cc2ncnc(Nc3ccc(O)c(Br)c3)c2cc1OC` [A, 4-[(3′-Bromo-4′-hydroxyphenyl)amino]-6,7-dimethoxyquinazoline], the “Inhibition of the activity of NPM-ALK” value on NPM-ALK was “inhibit the activity of NPM-ALK”. Further, the “Inhibition on peptide substrate” value in experiment [1] (final concentration 10 μM) was 98%. For the same molecule, the “Inhibitory activity on NCI-H2228 cells” value with NCI-H2228 cells (final concentration 10 μM, 5 days, cell number at Day 0 = 100% inhibition, Day 5 = 0%) is 164%. Also, in the experiment on v3 expressing 3T3 cells (final concentration 10 μM, 3 days, cell number at Day 0 = 100% inhibition, Day 3 = 0%), the “Inhibitory activity on v3 expressing 3T3 cells” value is listed as 172%. In addition, in experiment [2] (final concentration 10 μM), the “Inhibition on autophosphorylation (v3 expressing 3T3 cells)” value is reported as 94%. This molecule returned an Inhibition on autophosphorylation in experiment [3] (final concentration 10 μM) of 100%.

For `COc1cc2ncnc(Nc3ccc(O)cc3)c2cc1OC` [WHI-P131, 4-(4′-Hydroxyphenyl)amino-6,7-dimethoxyquinazoline], the “Inhibition of the activity of NPM-ALK” value at NPM-ALK is “inhibit the activity of NPM-ALK”.

Turning to `O=C(COc1ccc(OC(F)(F)F)cc1)NCc1nc(C(=O)NCCc2cccc(Cl)c2)cs1` [B, N-[2-(3-chlorophenyl)ethyl]-2-[({[4-(trifluoromethoxy)phenoxy]acetyl}amino)methyl]-1,3-thiazole-4-carboxamide], the inhibition at 10 µM in experiment [1] (final concentration 10 μM) was determined as 77%; in the experiment with NCI-H2228 cells (setting [4]), 102%; in the experiment with v3 expressing 3T3 cells (setting [5]), 53%; in experiment [2] (NIH3T3, final concentration 10 μM), 76%; in experiment [3] (final concentration 10 μM) it was 100%.

For `COc1cc(N2CCC(N3CCN(C)CC3)CC2)ccc1Nc1ncc(Cl)c(Nc2ccccc2S(=O)(=O)C(C)C)n1` [Compound C, 5-chloro-N^4-[2-(isopropylsulfonyl)phenyl]-N^2-{2-methoxy-4-[4-(4-methylpiperazin-1-yl)piperidin-1-yl]phenyl}pyrimidine-2,4-diamine], the inhibition at 0.03 µM in the experiment on NCI-H2228 cells (setting [4]) was 137%; in the experiment with v3 expressing 3T3 cells (setting [5]), 182%. Further, the “Inhibition rate of tumor growth (tumor volume) of NCI-H2228” value in the experiment with NCI-H2228 is 132%.

For `CNS(=O)(=O)c1ccccc1Nc1nc(Nc2ccc(N3CCN(C)CC3)cc2OC)ncc1Br` [D, 2-[(5-bromo-2-{[2-methoxy-4-(4-methylpiperazin-1-yl)phenyl]amino}pyrimidin-4-yl)amino]-N-methylbenzenesulfonamide], the inhibition at 0.01 µM in experiment [1] (final concentration 10 nM) amounted to 98%; in experiment [2] (NIH3T3, final concentration 10 nM), 106%; in experiment [3] (final concentration 10 nM), 107%. Further, the inhibition at 0.03 µM in the experiment on NCI-H2228 cells (setting [4]) worked out at 141%; in the experiment with v3 expressing 3T3 cells (setting [5]) it was 206%.

These data come from patent US7605131B2, “EML4-ALK fusion gene” (Astellas Pharma Inc., priority 2007, dated 2009).
